Assay in all cases: In Vitro Anti-Bacterial Activity Test (MIC, agar dilution)
Assay type in all cases: cell-based

Test [1] has as its system Enterobacter cloacae 1321E. To be noted: Enterobacter cloacae 1321E; Muller-Hinton agar, 37° C., 18 hours; read-out: MIC. In a few lines: (§1)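 Agar-incorporation MIC: Muller-Hinton medium, 10^7 C.F.U./ml inoculum, 18 h incubation at 37° C., growth checked by eye; ciprofloxacin reference.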
The test system of test [2] is Enterobacter cloacae P99. To be noted: Enterobacter cloacae, P99, 18 h. In a few lines: (§2)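 MIC values come from the lowest compound level in Muller-Hinton agar that stopped bacterial growth after 18 h at 37° C. Inocula contained 10^7 C.F.U./ml, and ciprofloxacin was run alongside as the reference antibacterial.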
Test [3] relates to Escherichia coli 078. In a few lines: as §1
Test [4] deals with Escherichia coli 1507E. To be noted: Muller-Hinton agar, 37° C. The procedure, abridged:
as §1

The test system of test [5] is Escherichia coli DC0. To be noted: Muller-Hinton agar, 37° C., 18 hours, read-out: MIC. The procedure, abridged:
as §1

In test [6] the test system is Escherichia coli DC2. To be noted: Escherichia coli, DC2, 18 h. In a few lines:
as §1

Test [7] relates to Escherichia coli TEM. To be noted: Escherichia coli, 18 h, Muller-Hinton agar, 37° C. The procedure, abridged: as §2
Test [8] relates to Klebsiella aerogenes 1522E. To be noted: Klebsiella aerogenes, 1522E, 18 h, Klebsiella aerogenes 1522E; Muller-Hinton agar, 37° C., 18 hours; read-out: MIC. The procedure, abridged:
as §1

Test [9] has as its system Klebsiella oxytoca 1082E. To be noted: Klebsiella oxytoca 1082E; Muller-Hinton agar, 37° C., 18 hours; read-out: MIC. The procedure, abridged:
as §1

Test [10] has as its system Pseudomonas aeruginosa 1592E. To be noted: Muller-Hinton agar, 37° C., 18 hours, read-out: MIC. The procedure, abridged: as §1
The test system of test [11] is Pseudomonas aeruginosa 1771M. The note with it: Pseudomonas aeruginosa, 1771M, 18 h, Muller-Hinton agar, 37° C. In a few lines:
as §1

In test [12] the test system is Pseudomonas aeruginosa 1771. The note with it: Pseudomonas aeruginosa 1771; Muller-Hinton agar, 37° C., 18 hours; read-out: MIC. The procedure, abridged: as §1
Test [13] deals with Pseudomonas aeruginosa 9027. The note with it: Muller-Hinton agar, 37° C., 18 hours, read-out: MIC. In a few lines: as §1
Test [14] has as its system Salmonella typhimurium. The note with it: Salmonella enterica; Salmonella typhimurium; Muller-Hinton agar, 37° C., 18 hours; read-out: MIC. The procedure, abridged:
as §1

For test [15], the system named is Staphylococcus aureus 285. The note with it: Staphylococcus aureus, 285, 18 h, Staphylococcus aureus 285; Muller-Hinton agar, 37° C., 18 hours; read-out: MIC. In a few lines: as §1
Test [16] deals with Staphylococcus aureus 503. To be noted: Staphylococcus aureus 503; Muller-Hinton agar, 37° C., 18 hours; read-out: MIC. In a few lines: as §1
The subject of test [17] is Staphylococcus aureus SG511. The note with it: Staphylococcus aureus SG511; Muller-Hinton agar, 37° C., 18 hours; read-out: MIC. In a few lines: as §1
For test [18], the system named is Streptococcus faecium MD8b. The note with it: Enterococcus faecium, Muller-Hinton agar, 37° C., 18 hours, read-out: MIC. In a few lines: as §1
Test [19] has as its system Streptococcus pyogenes 308A. The note with it: Muller-Hinton agar, 37° C., 18 hours, read-out: MIC. In a few lines:
as §1

In test [20] the test system is Streptococcus pyogenes 77A. To be noted: Streptococcus pyogenes 77A; Muller-Hinton agar, 37° C., 18 hours; read-out: MIC. The procedure, abridged:
as §1

Counter-ions that a name gives are not always drawn. Like-named read-outs stand apart in the source and are kept apart here.

The term MIC denotes the lowest concentration found to suppress growth.

For `Cc1c(N2CCC(N)C2)c(F)cc2c(=O)c(C(=O)C[N+](=O)[O-])cn(C3CC3)c12` (centres unmarked) [Example 50, 1-cyclopropyl-6-fluoro-8-methyl-7-(3-aminopyrrolidin-1-yl)-3-(2-nitroacetyl)-1,4-dihydro-4-oxoquinoline hydrochloride], the minimal inhibitory concentration (MIC) in [1] was 0.013 µg/mL; in [2], 0.013 µg/mL; in test [3] (Escherichia coli, 078, 18 h), 0.025 µg/mL; in [4] (Escherichia coli, 1507E, 18 h) it was 0.098 µg/mL; in [5], 0.195 µg/mL; in [6], 0.049 µg/mL. Further, the MIC in [7] was found to be 0.049 µg/mL; in test [8] it was 0.195 µg/mL; in test [9], 0.013 µg/mL; in test [10], 0.781 µg/mL; in [11], 0.391 µg/mL; in test [12], 1.56 µg/mL. For the same compound, the MIC in [13] is 1.56 µg/mL; in test [14], 0.013 µg/mL; in test [15] it was 0.098 µg/mL; in test [16], 0.098 µg/mL; in [17] it was 0.098 µg/mL; in test [18] it was 0.195 µg/mL. Moreover, the minimal inhibitory concentration (MIC) in test [19] came to 0.781 µg/mL; in test [20], 0.391 µg/mL.

`Cc1c(F)c(N2CCNC(C)C2)cc2c1c(=O)c(C(=O)C[N+](=O)[O-])cn2C1CC1` (centres unmarked) [Example 51, 1-cyclopropyl-5-methyl-6-fluoro-7-(3-methylpiperazin-1-yl)-3-(2-nitroacetyl)-1,4-dihydro-4-oxoquinoline hydrochloride]: the MIC in test [1] worked out at 0.025 µg/mL; in test [2] it was 0.025 µg/mL; in [3] (Escherichia coli, 078, 18 h), 0.025 µg/mL; in test [4] (Escherichia coli, 1507E, 18 h) it was 0.049 µg/mL; in test [5], 0.781 µg/mL; in [6] it was 0.195 µg/mL. For the same compound, the MIC came to 0.049 µg/mL in [7]; 0.195 µg/mL in test [8]; 0.013 µg/mL in [9]; 0.391 µg/mL in [10]; 0.195 µg/mL in [11]; 0.781 µg/mL in test [12]. For the same compound, the MIC in test [13] is 0.781 µg/mL; in test [14], 0.025 µg/mL; in test [15] it was 0.098 µg/mL; in test [16] it was 0.098 µg/mL; in test [17], 0.195 µg/mL; in test [18], 0.391 µg/mL. In addition, the results for the MIC in test [19] and in [20] were 0.781 µg/mL and 0.391 µg/mL, respectively.

Take `CCOC(=O)C(C(N)=O)C(=O)c1cn(C2CC2)c2c(Cl)c(N3CCC(N)C3)c(F)cc2c1=O` (centres unmarked) [Example 52, 1-cyclopropyl-6-fluoro-8-chloro-7-(3-aminopyrrolidin-1-yl)-3-(2-amido-2-ethoxycarbonylacetyl)-1,4-dihydro-4-oxoquinoline hydrochloride]: the MIC in [1] is under 0.002 µg/mL; in test [2], 0.004 µg/mL; in test [3] (Escherichia coli, 078, 18 h), 0.007 µg/mL; in test [4] (18 hours, read-out: MIC), 0.004 µg/mL; in [5], 0.049 µg/mL; in test [6], 0.025 µg/mL. The MIC is under 0.002 µg/mL in test [7]; 0.013 µg/mL in test [8]; under 0.002 µg/mL in [9]; 0.391 µg/mL in test [10]; 0.098 µg/mL in [11]; 0.391 µg/mL in [12]. Further, the MIC in [13] is 0.781 µg/mL; in test [14], 0.013 µg/mL; in [15] it was 0.025 µg/mL; in [16] it was 0.025 µg/mL; in test [17], 0.025 µg/mL; in test [18] it was 0.391 µg/mL. For the same compound, the figures for the minimal inhibitory concentration (MIC) in [19] and in test [20] were 0.195 µg/mL and 0.391 µg/mL, respectively.

As for `NCC1CCN(c2c(F)cc3c(=O)c(C(=O)C[N+](=O)[O-])cn(C4CC4)c3c2Cl)C1` (centres unmarked) [Example 53, 1-cyclopropyl-6-fluoro-8-chloro-7-(3-aminomethylpyrrolidin-1-yl)-3-(2-nitroacetyl)-1,4-dihydro-4-oxoquinoline hydrochloride], the MIC was under 0.002 µg/mL in [1]; 0.013 µg/mL in [2]; under 0.002 µg/mL in test [3] (Escherichia coli 078, Muller-Hinton agar, 37° C., 18 hours, read-out: MIC); 0.025 µg/mL in test [4] (Escherichia coli, 1507E, 18 h); 0.195 µg/mL in test [5]; 0.049 µg/mL in test [6]. Also, the minimal inhibitory concentration (MIC) in [7] was 0.013 µg/mL; in test [8], 0.013 µg/mL; in test [9], under 0.002 µg/mL; in test [10], 0.391 µg/mL; in [11] it was 0.195 µg/mL; in test [12], 0.781 µg/mL. Also, the minimal inhibitory concentration (MIC) came to 0.781 µg/mL in [13]; 0.013 µg/mL in test [14]; 0.007 µg/mL in test [15]; 0.013 µg/mL in test [16]; 0.013 µg/mL in test [17]; 0.049 µg/mL in test [18]. Also, the figures for the MIC in test [19] and in test [20] were 0.098 µg/mL and 0.049 µg/mL, respectively.

As to `CCOC(=O)C(C(=O)OCC)C(=O)c1cn(C2CC2)c2c(Cl)c(N3CC[C@@H](NC)C3)c(F)cc2c1=O` [Example 55, 1-cyclopropyl-6-fluoro-8-chloro-7-(3-3R-methylaminopyrrolidin-1-yl)-3-(2,2-diethoxycarbonylacetyl)-1,4-dihydro-4-oxoquinoline hydrochloride], the MIC was 0.049 µg/mL in test [1]; 0.025 µg/mL in test [2]; 0.013 µg/mL in test [3] (Escherichia coli, 078, 18 h); 0.025 µg/mL in test [4] (Escherichia coli, 1507E, 18 h); 0.391 µg/mL in test [5]; 0.098 µg/mL in test [6]. Also, the MIC in test [7] came to 0.025 µg/mL; in test [8], 0.049 µg/mL; in test [9] it was 0.025 µg/mL; in [10], 0.391 µg/mL; in test [11] it was 0.195 µg/mL; in test [12], 0.391 µg/mL. For the same compound, the MIC was 1.56 µg/mL in [13]; 0.013 µg/mL in [14]; 0.195 µg/mL in test [15]; 0.195 µg/mL in test [16]; 0.098 µg/mL in test [17]; 0.391 µg/mL in [18]. Moreover, the minimal inhibitory concentration (MIC) amounted to 1.56 µg/mL in test [19] and 0.391 µg/mL in test [20].

For `CCOC(=O)C(C(=O)OCC)C(=O)c1cn(C2CC2)c2c(Cl)c(N3CC[C@H](NC)C3)c(F)cc2c1=O` [Example 56, 1-cyclopropyl-6-fluoro-8-chloro-7-(3-3S-methylaminopyrrolidin-1-yl)-3-(2,2-diethoxycarbonylacetyl)-1,4-dihydro-4-oxoquinoline hydrochloride], the MIC is 0.049 µg/mL in [1]; 0.013 µg/mL in [2]; 0.007 µg/mL in [3] (Escherichia coli, 078, 18 h); 0.013 µg/mL in test [4] (Escherichia coli, 1507E, 18 h); 0.195 µg/mL in test [5]; 0.049 µg/mL in [6]. Besides, the MIC in [7] stood at 0.013 µg/mL; in test [8], 0.049 µg/mL; in test [9], 0.013 µg/mL; in [10] it was 0.391 µg/mL; in [11], 0.098 µg/mL; in test [12], 0.391 µg/mL. In addition, the MIC in test [13] stood at 0.781 µg/mL; in [14] it was 0.007 µg/mL; in test [15], 0.098 µg/mL; in [16], 0.098 µg/mL; in test [17], 0.049 µg/mL; in test [18], 0.195 µg/mL. Also, the MIC worked out at 0.781 µg/mL in test [19] and 0.195 µg/mL in [20].

For `CCOC(=O)C(C(=O)OCC)C(=O)c1cn(C2CC2)c2c(Cl)c(N3CCC(NC)C3)c(F)cc2c1=O` (centres unmarked) [Example 57, 1-cyclopropyl-6-fluoro-8-chloro-7-(3-methylaminopyrrolidin-1-yl)-3-(2,2-diethoxycarbonylacetyl)-1,4-dihydro-4-oxoquinoline hydrochloride], the MIC worked out at 0.049 µg/mL in test [1]; 0.013 µg/mL in test [2]; 0.007 µg/mL in test [3] (Escherichia coli, 078, 18 h); 0.013 µg/mL in test [4] (Escherichia coli, 1507E, 18 h); 0.049 µg/mL in [5]; 0.025 µg/mL in [6]. In addition, the MIC worked out at 0.013 µg/mL in [7]; 0.049 µg/mL in test [8]; 0.049 µg/mL in test [9]; 0.781 µg/mL in [10]; 0.195 µg/mL in [11]; 0.391 µg/mL in [12]. For the same compound, the MIC is 1.56 µg/mL in test [13]; 0.013 µg/mL in [14]; 0.195 µg/mL in test [15]; 0.195 µg/mL in test [16]; 0.049 µg/mL in test [17]; 0.098 µg/mL in test [18]. The MIC in [19] came to 0.781 µg/mL; in test [20], 0.195 µg/mL.

The record behind these values is patent US5409933A, “Quinoline derivatives and processes for preparing the same” (priority 1993, dated 1995).
